In PMC12059162 (Scientific Reports, 2025):

Key:
PANC-1 cells = experiment: CyQUANT LDH direct cytotoxicity assay; format: cell-based, human; details: PANC-1, 25 µM, 72 h
Procedure: To assess the direct cytotoxicity, the CyQUANT™ LDH Cytotoxicity Assay (Invitrogen Corporation, New York, NY, USA) was used, which is a colourimetric assay. It is based on the detection of lactate dehydrogenase (LDH) activity. When there is damage to the plasma membrane, LDH is released into the cell culture medium, where it can be detected. First, 5 × 10^3 cells/well/100 µL concentration of cells were seeded in a 96-well plate, and after 24 h of incubation, the cells were treated with the molecules at concentrations of 0.5, 10 and 25 µM. After 72 h of treatment, 50 µl of the media from each sample was pipetted to a new 96-well plate. Then, the necessary steps were carried out according to the manufacturer’s instructions. Absorbance was measured for each well using a plate reader (Multiskan MS, Labsystems, Helsinki, Finland) at 492 and 680 nm. The % cytotoxicity was then calculated according to the manufacturer’s instructions. Three parallel samples were analysed in each treatment group.

FADD = experiment: Human Apoptosis Array in PANC-1 cells; details: PANC-1, 0.5 µM, 72 h
XIAP = experiment: Human Apoptosis Array in PANC-1 cells; details: PANC-1, 0.5 µM, 72 h
NHDF cells = experiment: alamarBlue cell viability, healthy cells; details: Homo sapiens, NHDF, 72 h, read-out: IC50 values (μM) 72 hours
cleaved caspase-3 = experiment: Human Apoptosis Array in PANC-1 cells; details: PANC-1, 0.5 µM, 72 h
DR5 = experiment: Human Apoptosis Array in PANC-1 cells; details: PANC-1, 0.5 µM, 72 h
SMAC = experiment: Human Apoptosis Array in PANC-1 cells; details: PANC-1, 0.5 µM, 72 h
cytochrome-c = experiment: Human Apoptosis Array in PANC-1 cells; details: PANC-1, 0.5 µM, 72 h
DR4 = experiment: qPCR apoptotic gene expression in PANC-1 cells; details: PANC-1, 25 µM

Row | SMILES | cytotoxicity at 25 µM (PANC-1 cells; Homo sapiens, DMSO control 5.3%) [%] | Direct cytotoxicity, fold compared to the DMSO control (PANC-1 cells) [fold] | FADD protein level (FADD) | XIAP protein level (XIAP) | IC50 (NHDF cells) [µM] | cleaved caspase-3 protein level (cleaved caspase-3) | DR5 protein level (DR5) | SMAC protein level (SMAC) | cytochrome-c protein level (cytochrome-c) | DR4 mRNA expression (DR4; 3 h) | DR4 mRNA expression (DR4; 24 h, normalised to DMSO control) [fold]
1 | O=C1C2=C(CCN(Cc3ccccc3)C2)N2CCN=C2N1Cc1ccc(F)cc1 [TBP-134] | 6.9 | 1.3 | decrease | decrease | 1.55 |  |  |  |  |  | 
2 | O=C1C2=C(CCN(Cc3ccccc3)C2)N2CCN=C2N1Cc1cccc(F)c1 [TBP-135] |  |  |  |  |  | significantly increased | significantly increased | significantly increased | significantly decreased | significantly upregulated | 3.7
